Reference: paper PMC10707982, “Solubility and Thermodynamics Data of Cabozantinib Malate in Various Aqueous Solutions of Dimethyl Sulfoxide at Different Temperatures” (Molecules, 2023)

Legend:
[1] = design: method as in earlier work; conditions: all aqueous solutions, including H2O; cited from earlier work
[2] = Shake flask solubility of CBZM in DMSO aqueous solutions and pure solvents; assay type: physicochemical; conditions: for Experimental mole fraction solubility (xe): 101.1 kPa
Protocol: A digital analytical balance (Mettler Toledo, Greifensee, Switzerland) with a sensitivity of 0.10 mg was used to measure the mass of each cosolvent mixture. A series of DMSO aqueous solutions (m = 0.10–0.90), were investigated. Three replications of each cosolvent mixture were taken. CBZM’s solubility values in numerous DMSO aqueous solutions (m = 0.0–1.0) and pure solvents were determined utilizing a shake flask methodology at five distinct temperature and fixed atmospheric pressure. Essentially, extra CBZM crystals were mixed with known amounts of each cosolvent mixture and neat solvents in triplicates. All the mixtures were vortexed for about 5 min. To achieve equilibrium, the resulting mixes were transferred to a WiseBath WSB Shaking Water Bath (Model WSB-18/30/-45, Daihan Scientific Co. Ltd., Seoul, Republic of Korea) for 72 h at 100 rpm for continuous shaking. After the samples reached equilibrium, they were removed from the shaker and centrifuged at 5000 rpm for 30 min at 298.2 K. The uncertainty in water bath temperature was recorded as 0.15 K. The equilibrium time of 72 h was optimized by preliminary experiments. Under preliminary experiments, CBZM solubility was measured at 24, 48, […], 72, and 96 h. […] After the supernatants were separated and diluted with mobile phase (if needed), the CBZM content was evaluated at 244 nm using a previously described HPLC technique. By using their standard formulae found in the literature, CBZM xe values were obtained.

[3] = design: method as in doi:10.1016/j.molliq.2020.115146; conditions: cited from earlier work
[4] = Apparent thermodynamic analysis of CBZM dissolution (van't Hoff and Gibbs equations) and enthalpy–entropy compensation; assay type: physicochemical
Protocol: All of the CBZM’s apparent thermodynamic properties were determined at Thm. The reported equation was used to determine the Thm. Then, 308 K was calculated as the Thm for CBZM. Several thermodynamic parameters were obtained via an apparent thermodynamic analysis. These parameters were computed using the van’t Hoff and Gibbs equations. Using Equation (12) and Thm = 308 K, the ΔsolH^0 data for CBZM in cosolvent mixtures and pure solvents were calculated:(12) ∂ln xe/∂1/T−1/ThmP=−ΔsolH^0/R
The ΔsolH^0 for CBZM was obtained by the plotted van’t Hoff curves between ln xe of CBZM and 1/T−1/Thm .
Furthermore, at Thm = 308 K, the ΔsolG^0 for CBZM in cosolvent combinations and pure solvents was derived utilizing the Krug et al. approach by Equation (13):(13) ΔsolG^0=−RThm×intercept where the intercept values for CBZM in cosolvent combinations and pure solvents were calculated using the van’t Hoff plots depicted in Figure 5.
By Equation (14), the ΔsolS^0 for CBZM in cosolvent mixtures and neat solvents was derived:(14) ΔsolS^0=ΔsolH^0−ΔsolG^0/Thm
An enthalpy–entropy compensation analyses was performed, as previously described, to assess the solvation behavior of CBZM in cosolvent mixtures and neat solvents. Weighted curves of ΔsolH° vs. ΔsolG° were constructed at Thm = 308 K for this experiment.

[5] = DMSO mass fraction m = 0.0, Thm = 308 K
[6] = DMSO mass fraction m = 0.1, Thm = 308 K
[7] = DMSO mass fraction m = 0.2, Thm = 308 K
[8] = DMSO mass fraction m = 0.3, Thm = 308 K
[9] = DMSO mass fraction m = 0.4, Thm = 308 K
[10] = DMSO mass fraction m = 0.5, Thm = 308 K
[11] = DMSO mass fraction m = 0.6, Thm = 308 K
[12] = DMSO mass fraction m = 0.7, Thm = 308 K
[13] = DMSO mass fraction m = 0.8, Thm = 308 K
[14] = DMSO mass fraction m = 0.9, Thm = 308 K
[15] = DMSO mass fraction m = 1.0, Thm = 308 K

Experimental mole fraction solubility (xe) ([2]; DMSO mass fraction m = 0.0, T = 298.2 K): 2.24 × 10^−7 mole fraction
Experimental mole fraction solubility (xe) ([2]; DMSO mass fraction m = 0.0, T = 303.2 K): 3.37 × 10^−7 mole fraction
Experimental mole fraction solubility (xe) ([2]; DMSO mass fraction m = 0.0, T = 308.2 K): 4.85 × 10^−7 mole fraction
Experimental mole fraction solubility (xe) ([2]; DMSO mass fraction m = 0.0, T = 313.2 K): 6.55 × 10^−7 mole fraction
Experimental mole fraction solubility (xe) ([2]; DMSO mass fraction m = 0.0, T = 318.2 K): 8.53 × 10^−7 mole fraction
Experimental mole fraction solubility (xe) ([2]; DMSO mass fraction m = 0.1, T = 298.2 K): 7.46 × 10^−7 mole fraction
Experimental mole fraction solubility (xe) ([2]; DMSO mass fraction m = 0.1, T = 303.2 K): 1.12 × 10^−6 mole fraction
Experimental mole fraction solubility (xe) ([2]; DMSO mass fraction m = 0.1, T = 308.2 K): 1.52 × 10^−6 mole fraction
Experimental mole fraction solubility (xe) ([2]; DMSO mass fraction m = 0.1, T = 313.2 K): 2.01 × 10^−6 mole fraction
Experimental mole fraction solubility (xe) ([2]; DMSO mass fraction m = 0.1, T = 318.2 K): 2.55 × 10^−6 mole fraction
Experimental mole fraction solubility (xe) ([2]; DMSO mass fraction m = 0.2, T = 298.2 K): 2.48 × 10^−6 mole fraction
Experimental mole fraction solubility (xe) ([2]; DMSO mass fraction m = 0.2, T = 303.2 K): 3.48 × 10^−6 mole fraction
Experimental mole fraction solubility (xe) ([2]; DMSO mass fraction m = 0.2, T = 308.2 K): 4.69 × 10^−6 mole fraction
Experimental mole fraction solubility (xe) ([2]; DMSO mass fraction m = 0.2, T = 313.2 K): 6.00 × 10^−6 mole fraction
Experimental mole fraction solubility (xe) ([2]; DMSO mass fraction m = 0.2, T = 318.2 K): 7.57 × 10^−6 mole fraction
Experimental mole fraction solubility (xe) ([2]; DMSO mass fraction m = 0.3, T = 298.2 K): 8.00 × 10^−6 mole fraction
Experimental mole fraction solubility (xe) ([2]; DMSO mass fraction m = 0.3, T = 303.2 K): 1.11 × 10^−5 mole fraction
Experimental mole fraction solubility (xe) ([2]; DMSO mass fraction m = 0.3, T = 308.2 K): 1.46 × 10^−5 mole fraction
Experimental mole fraction solubility (xe) ([2]; DMSO mass fraction m = 0.3, T = 313.2 K): 1.83 × 10^−5 mole fraction
Experimental mole fraction solubility (xe) ([2]; DMSO mass fraction m = 0.3, T = 318.2 K): 2.25 × 10^−5 mole fraction
Experimental mole fraction solubility (xe) ([2]; DMSO mass fraction m = 0.4, T = 298.2 K): 2.66 × 10^−5 mole fraction
Experimental mole fraction solubility (xe) ([2]; DMSO mass fraction m = 0.4, T = 303.2 K): 3.48 × 10^−5 mole fraction
Experimental mole fraction solubility (xe) ([2]; DMSO mass fraction m = 0.4, T = 308.2 K): 4.42 × 10^−5 mole fraction
Experimental mole fraction solubility (xe) ([2]; DMSO mass fraction m = 0.4, T = 313.2 K): 5.49 × 10^−5 mole fraction
Experimental mole fraction solubility (xe) ([2]; DMSO mass fraction m = 0.4, T = 318.2 K): 6.59 × 10^−5 mole fraction
Experimental mole fraction solubility (xe) ([2]; DMSO mass fraction m = 0.5, T = 298.2 K): 8.61 × 10^−5 mole fraction
Experimental mole fraction solubility (xe) ([2]; DMSO mass fraction m = 0.5, T = 303.2 K): 1.12 × 10^−4 mole fraction
Experimental mole fraction solubility (xe) ([2]; DMSO mass fraction m = 0.5, T = 308.2 K): 1.38 × 10^−4 mole fraction
Experimental mole fraction solubility (xe) ([2]; DMSO mass fraction m = 0.5, T = 313.2 K): 1.69 × 10^−4 mole fraction
Experimental mole fraction solubility (xe) ([2]; DMSO mass fraction m = 0.5, T = 318.2 K): 1.98 × 10^−4 mole fraction
Experimental mole fraction solubility (xe) ([2]; DMSO mass fraction m = 0.6, T = 303.2 K): 3.47 × 10^−4 mole fraction
Experimental mole fraction solubility (xe) ([2]; DMSO mass fraction m = 0.6, T = 308.2 K): 4.21 × 10^−4 mole fraction
Experimental mole fraction solubility (xe) ([2]; DMSO mass fraction m = 0.6, T = 313.2 K): 4.95 × 10^−4 mole fraction
Experimental mole fraction solubility (xe) ([2]; DMSO mass fraction m = 0.6, T = 318.2 K): 5.79 × 10^−4 mole fraction
Experimental mole fraction solubility (xe) ([2]; DMSO mass fraction m = 0.7, T = 298.2 K): 9.33 × 10^−4 mole fraction
Experimental mole fraction solubility (xe) ([2]; DMSO mass fraction m = 0.7, T = 303.2 K): 1.12 × 10^−3 mole fraction
Experimental mole fraction solubility (xe) ([2]; DMSO mass fraction m = 0.7, T = 308.2 K): 1.31 × 10^−3 mole fraction
Experimental mole fraction solubility (xe) ([2]; DMSO mass fraction m = 0.7, T = 313.2 K): 1.53 × 10^−3 mole fraction
Experimental mole fraction solubility (xe) ([2]; DMSO mass fraction m = 0.7, T = 318.2 K): 1.72 × 10^−3 mole fraction
Experimental mole fraction solubility (xe) ([2]; DMSO mass fraction m = 0.8, T = 298.2 K): 3.09 × 10^−3 mole fraction
Experimental mole fraction solubility (xe) ([2]; DMSO mass fraction m = 0.8, T = 303.2 K): 3.53 × 10^−3 mole fraction
Experimental mole fraction solubility (xe) ([2]; DMSO mass fraction m = 0.8, T = 308.2 K): 3.99 × 10^−3 mole fraction
Experimental mole fraction solubility (xe) ([2]; DMSO mass fraction m = 0.8, T = 313.2 K): 4.55 × 10^−3 mole fraction
Experimental mole fraction solubility (xe) ([2]; DMSO mass fraction m = 0.8, T = 318.2 K): 5.04 × 10^−3 mole fraction
Experimental mole fraction solubility (xe) ([2]; DMSO mass fraction m = 0.9, T = 298.2 K): 1.07 × 10^−2 mole fraction
Experimental mole fraction solubility (xe) ([2]; DMSO mass fraction m = 0.9, T = 303.2 K): 1.15 × 10^−2 mole fraction
Experimental mole fraction solubility (xe) ([2]; DMSO mass fraction m = 0.9, T = 308.2 K): 1.26 × 10^−2 mole fraction
Experimental mole fraction solubility (xe) ([2]; DMSO mass fraction m = 0.9, T = 313.2 K): 1.38 × 10^−2 mole fraction
Experimental mole fraction solubility (xe) ([2]; DMSO mass fraction m = 0.9, T = 318.2 K): 1.52 × 10^−2 mole fraction
Experimental mole fraction solubility (xe) ([2]; DMSO mass fraction m = 1.0, T = 298.2 K): 3.29 × 10^−2 mole fraction
Experimental mole fraction solubility (xe) ([2]; DMSO mass fraction m = 1.0, T = 303.2 K): 3.50 × 10^−2 mole fraction
Experimental mole fraction solubility (xe) ([2]; DMSO mass fraction m = 1.0, T = 308.2 K): 3.78 × 10^−2 mole fraction
Experimental mole fraction solubility (xe) ([2]; DMSO mass fraction m = 1.0, T = 313.2 K): 4.02 × 10^−2 mole fraction
Experimental mole fraction solubility (xe) ([2]; DMSO mass fraction m = 1.0, T = 318.2 K): 4.38 × 10^−2 mole fraction
Solubility classification in DMSO ([2]; neat DMSO, 298.2–318.2 K): freely soluble
Solubility classification in H2O ([2]; neat H2O, 298.2–318.2 K): practically insoluble
Apparent standard Gibbs energy ΔsolG^0 [4, 5]: 37.36 kJ/mol
Apparent standard enthalpy ΔsolH^0 [4, 5]: 52.71 kJ/mol
Apparent standard entropy ΔsolS^0 [4, 5]: 49.82 J mol^−1 K^−1
Apparent standard Gibbs energy ΔsolG^0 [4, 6]: 34.41 kJ/mol
Apparent standard enthalpy ΔsolH^0 [4, 6]: 48.03 kJ/mol
Apparent standard entropy ΔsolS^0 [4, 6]: 44.21 J mol^−1 K^−1
Apparent standard Gibbs energy ΔsolG^0 [4, 7]: 31.52 kJ/mol
Apparent standard enthalpy ΔsolH^0 [4, 7]: 43.82 kJ/mol
Apparent standard entropy ΔsolS^0 [4, 7]: 39.92 J mol^−1 K^−1
Apparent standard Gibbs energy ΔsolG^0 [4, 8]: 28.62 kJ/mol
Apparent standard enthalpy ΔsolH^0 [4, 8]: 40.57 kJ/mol
Apparent standard entropy ΔsolS^0 [4, 8]: 38.80 J mol^−1 K^−1
Apparent standard Gibbs energy ΔsolG^0 [4, 9]: 25.74 kJ/mol
Apparent standard enthalpy ΔsolH^0 [4, 9]: 35.81 kJ/mol
Apparent standard entropy ΔsolS^0 [4, 9]: 32.71 J mol^−1 K^−1
Apparent standard Gibbs energy ΔsolG^0 [4, 10]: 22.81 kJ/mol
Apparent standard enthalpy ΔsolH^0 [4, 10]: 32.78 kJ/mol
Apparent standard entropy ΔsolS^0 [4, 10]: 32.35 J mol^−1 K^−1
Apparent standard Gibbs energy ΔsolG^0 [4, 11]: 19.95 kJ/mol
Apparent standard enthalpy ΔsolH^0 [4, 11]: 28.02 kJ/mol
Apparent standard entropy ΔsolS^0 [4, 11]: 26.18 J mol^−1 K^−1
Apparent standard Gibbs energy ΔsolG^0 [4, 12]: 17.03 kJ/mol
Apparent standard enthalpy ΔsolH^0 [4, 12]: 24.18 kJ/mol
Apparent standard entropy ΔsolS^0 [4, 12]: 23.21 J mol^−1 K^−1
Apparent standard Gibbs energy ΔsolG^0 [4, 13]: 14.15 kJ/mol
Apparent standard enthalpy ΔsolH^0 [4, 13]: 19.48 kJ/mol
Apparent standard entropy ΔsolS^0 [4, 13]: 17.30 J mol^−1 K^−1
Apparent standard Gibbs energy ΔsolG^0 [4, 14]: 11.19 kJ/mol
Apparent standard entropy ΔsolS^0 [4, 14]: 9.05 J mol^−1 K^−1
Apparent standard Gibbs energy ΔsolG^0 [4, 15]: 8.38 kJ/mol
Apparent standard enthalpy ΔsolH^0 [4, 15]: 11.43 kJ/mol
Apparent standard entropy ΔsolS^0 [4, 15]: 9.91 J mol^−1 K^−1
Solvation-driven process (enthalpy–entropy compensation) ([4]; all cosolvent combinations and pure solvents, Thm = 308 K): enthalpy-driven
Nature of dissolution ([4]; all cosolvent combinations, including neat solvents): endothermic and entropy-driven
Structure (SMILES): COc1cc2nccc(Oc3ccc(NC(=O)C4(C(=O)Nc5ccc(F)cc5)CC4)cc3)c2cc1OC [CBZM, Cabozantinib malate]
Solubility in aqueous solutions [1]: nearly insoluble
Total HSP (δt) [3]: 25.50 MPa^1/2
